# From PubChem BioAssay AID1259321 (Sanford-Burnham Center for Chemical Genomics, 2017)
# The source made the active and inactive calls.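 Rule for the calls: active = half-maximal concentration for changing protein binding to DNA, from the fitted dose curve, below 10 micromolar; inactive = the rest.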
# Molecular target: Nuclear receptor subfamily 1 group D member 1 (Homo sapiens) (UniProt P20393)
# Experiment: Rev-erbα–DNA interaction modulators – biochemical, FITC-DNA, fluorescence polarization, dose response (AID 1259321)
# Conditions: Rev-erb alpha-FITC-DNA binding
# Nuclear receptor subfamily 1 group D member 1 (Homo sapiens), sequence (P20393 whole entry, looked up): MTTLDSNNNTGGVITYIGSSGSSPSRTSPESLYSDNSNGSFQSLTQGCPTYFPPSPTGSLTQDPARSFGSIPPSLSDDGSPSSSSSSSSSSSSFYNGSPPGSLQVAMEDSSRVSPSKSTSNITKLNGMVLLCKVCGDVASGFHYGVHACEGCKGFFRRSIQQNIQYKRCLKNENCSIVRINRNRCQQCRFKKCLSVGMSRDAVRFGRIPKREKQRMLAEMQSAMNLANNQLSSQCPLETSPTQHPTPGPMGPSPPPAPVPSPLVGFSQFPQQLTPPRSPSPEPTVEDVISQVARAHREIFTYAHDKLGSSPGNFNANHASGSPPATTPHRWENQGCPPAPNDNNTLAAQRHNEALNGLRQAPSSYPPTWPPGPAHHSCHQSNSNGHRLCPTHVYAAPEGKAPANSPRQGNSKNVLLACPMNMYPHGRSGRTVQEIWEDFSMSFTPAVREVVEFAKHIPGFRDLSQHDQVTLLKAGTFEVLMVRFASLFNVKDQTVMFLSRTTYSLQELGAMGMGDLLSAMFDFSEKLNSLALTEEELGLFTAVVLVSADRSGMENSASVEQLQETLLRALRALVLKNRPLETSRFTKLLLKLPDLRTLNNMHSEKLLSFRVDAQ
row,Structure (SMILES),IC50
1,CCOC(Cn1c(SCc2cc(C(C)=O)ccc2OC)nc2ccccc2c1=O)OCC,9.39 µM
2,CC(OC(=O)c1cc2c(ccc3ccccc32)oc1=O)c1nc2ccccc2s1 (stereo not given),inactive
3,N#CCNC(=O)c1nn2c(C(F)(F)F)cc(-c3ccccc3)nc2c1Br,3.58 µM
4,COc1ccc2nc(SCC(=O)Nc3ccc4sc(C)nc4c3)c(C#N)cc2c1,1.98 µM
5,CCCCn1c(SC(C)C(=O)NCC2CCCO2)nc2cc(C(=O)OC)ccc2c1=O (stereo not given),> 40 µM (inactive)
6,COc1cc2oc(=O)cc(-c3ccc(-c4ccc(CO)cc4)cc3)c2c(OC)c1OC,5.84 µM
7,O=C(COc1ncnc2c(Cl)cc(Cl)cc12)NC1CCCCCC1,0.847 µM
8,COc1ccc(Cl)cc1NC(=O)c1[nH]c(C)c(C(C)=O)c1C,6.1 µM
9,O=C(CSc1nc2ccccc2nc1N1CCCCC1)NCc1ccc(Cl)cc1Cl,7.15 µM
10,O=[N+]([O-])c1ccc(-c2nc(-c3cccs3)c(-c3cccs3)[nH]2)cc1,inactive
11,CCOc1cc2[nH]c(=S)n(CCC(=O)N3CCc4ccccc4C3)c(=O)c2cc1OCC,inactive
12,Fc1cccc2sc(Nc3nc4ccccc4s3)nc12,> 40 µM (inactive)
13,CCC(c1ccc(O)cc1)C(CC)c1ccc(O)cc1 (stereo not given),inactive
14,CCc1cccc(NC(=O)c2ccc(Cn3c(=O)[nH]c4ccsc4c3=O)cc2)c1,inactive
15,O=c1ccc2c(-c3ccccc3)c3ccc(O)cc3oc-2c1,inactive
16,CCC(=O)c1ccc(OCC(=O)Nc2ccccc2C(=O)NC2CC2)cc1,4.7 µM
17,CCN1/C(=C/c2ccc3cc(C)ccc3[n+]2CC)Sc2ccccc21,> 40 µM (inactive)
18,Cc1cc(C)c(NC(=O)CSc2nc3ncc(Br)cc3[nH]2)c(C)c1,> 40 µM (inactive)
19,Cc1cccc(N2CCN(c3ccc4cc(S(=O)(=O)N5CCCCC5)ccc4n3)CC2C)c1 (stereo not given),4.89 µM
20,CN(C)C=Nc1nc2c(Br)ccc(Br)c2cc1C(=O)NCC(C)(C)C,inactive
21,COc1ccc(CC(=O)Nc2ccc(-c3noc(-c4ccccc4OC)n3)cc2)cc1,4.17 µM
22,CCCc1cc(=O)oc2cc(C)cc(OCC(=O)Nc3ccc(S(N)(=O)=O)cc3)c12,> 40 µM (inactive)
23,O=C(COC(=O)c1cc(Br)ccc1O)Nc1cccnc1Cl,2.58 µM
24,CCN(CC)C(=O)Cn1c(C)c(/C=C/c2cc[n+](C)cc2)c2ccccc21,4.55 µM
25,N#CC(C#N)=C1C=C2C=C(N3CCCCCC3)CCC2CC1 (stereo not given),4.8 µM
26,CCOC(=O)c1nn(-c2ccc(F)cc2)c(=O)cc1OCC(=O)Nc1cccc(C)c1,9.68 µM
27,Cc1cc(=O)oc2cc(OCC3CC(c4ccc(Br)cc4)=NO3)ccc12 (stereo not given),1.04 µM

row,Structure (SMILES),IC50
1,O=C(CSc1ncnc2c1oc1ccccc12)Nc1ccccc1F,7.81 µM
2,COC(=O)c1sc2nc(-c3ccccc3)c3c(c2c1N)CCCC3,inactive
3,Cc1nc(NC(=O)c2cncc(Br)c2)ccc1Br,inactive
4,CN(C)c1ccc(N=Nc2ccccc2C(=O)OCC(=O)NCC2CCCCC2)cc1,7.85 µM
5,COc1ccccc1Oc1ccc2c(c1)C(=O)N(c1ccccc1)C2=O,2.24 µM
6,CN1CCS/C1=C\C=C1/SC(=S)N(CC(=O)O)C1=O,inactive
7,COc1ccc(NC(=O)NNC(=O)COc2ccc3cc(Br)ccc3c2)c(OC)c1,> 40 µM (inactive)
8,O=c1c2ccccc2n2c(-c3ccc(F)cc3)nnc2n1Cc1ccccc1,inactive
9,O=C(NCc1ccccc1)C(c1cccc2ccccc12)n1c(=O)c(-c2ccccc2)nc2ccccc21 (stereo not given),1.61 µM
10,CCOC(=O)c1cccc2c(=O)c(C(=O)c3ccc(Cl)cc3)c(C(=O)OC)[nH]c12,> 40 µM (inactive)
11,CCOC(=O)Cn1c(=NC(=O)c2cccs2)sc2cc(C(=O)OC)ccc21,inactive
12,CC1(Cc2ccccc2OC(F)(F)F)C(=O)Nc2ccc(-c3ccsc3)cc21 (stereo not given),1.7 µM
13,CCN1C(=O)c2cccc3c(N)ccc(c23)C1=O,> 40 µM (inactive)
14,COc1ccc(S(=O)(=O)N2CCc3ccccc32)cc1C(=O)Nc1ccc(NC(C)=O)cc1,5.19 µM
15,CCOc1ccc(CCNC(=O)c2cc(-c3ccccc3)c(N3CCOCC3)s2)cc1,4.5 µM
16,Cc1cc(-c2csc3nc[nH]c(=S)c23)cc(C)c1C,5.33 µM
17,Cc1ccc(-c2nc(NC(=O)CSc3cc(C)c4ccccc4n3)ns2)cc1,1.91 µM
18,Cc1ccc(-c2csc3nc[nH]c(=S)c23)cc1C,2.1 µM
19,COc1ccccc1N1N=C(C(=O)c2ccccc2)C2C(=O)N(c3ccc(Br)cc3)C(=O)C21 (stereo not given),8.96 µM
20,COc1ccccc1CC1(C)C(=O)Nc2ccc(OC(F)(F)F)cc21 (stereo not given),> 40 µM (inactive)
21,Cc1cc2cc3c(=O)[nH]c(=O)[nH]c3nc2cc1C,3.34 µM
22,COc1ccc(/C=C2/SC(=O)N(CCC(=O)Nc3ccccc3)C2=O)cc1OC,9.31 µM
23,N#Cc1ccccc1Sc1ccccc1C(=O)OCC(=O)NC1CCCCC1,inactive
24,CN(C)/C=C1\C=C2C(=O)c3ccccc3N2C1=O,0.714 µM
25,COc1cccc(C(=O)Nc2ccc(-c3nc4ccccc4o3)c(O)c2)c1,> 40 µM (inactive)
26,CSc1nnc2c3cc(F)ccc3n(Cc3ccccc3)c2n1,7.93 µM
27,Cc1nc(SCC(=O)NC2CCCC2)c2oc3ccccc3c2n1,7.45 µM

row,Structure (SMILES),IC50
1,CCOC(=O)c1sc(NC(=S)NC(=O)c2ccc(OC)cc2)nc1C,2.11 µM
2,COc1ccc2nc(SCc3cccnc3)c(C#N)cc2c1,2.51 µM
3,Oc1ccc2ccc3cccc[n+]3c2c1,> 40 µM (inactive)
4,CCOC(=O)c1nn(-c2ccc(Cl)cc2)c2nc(-c3ccc(C)cc3)c(C#N)c(=O)n12,2 µM
5,C/C(N)=C(/C#N)C(=O)CSc1nc2ccccc2c(=O)n1-c1ccc(C)c(Cl)c1,> 40 µM (inactive)
6,Cc1ccc(-n2c(SCC(=O)NCc3ccco3)nc3sc4c(c3c2=O)CC(C)(C)SC4)cc1,1.93 µM
7,Cc1ccccc1C(=O)N=c1ccn(-c2nc3ccccc3nc2NS(=O)(=O)c2ccc(F)cc2)cc1,5.69 µM
8,CCn1cc(C(=O)NCCc2ccccc2C)c(=O)c2ccc(C)nc21,1.16 µM
9,COc1ccc(C(=O)Nc2ccccc2C(=O)Nc2ccccc2)cc1,6.74 µM
10,Cc1cc(N2CCCC2)ccc1/C=C1\NC(=S)N(C)C1=O,inactive
11,CCCCOc1ccc(N(CC(=O)NC2CCCCC2)C(=O)c2snc(C(N)=O)c2N)cc1,> 40 µM (inactive)
12,CCOC(=O)c1c(-c2ccccc2)csc1NC(=O)c1cc(S(=O)(=O)N2CCOCC2)ccc1C,4.51 µM
13,CCCCCNC(=O)c1c[nH]c2ccc(S(=O)(=O)N3CCC4(CC3)OCCO4)cc2c1=O,inactive
14,COc1ccc(CN(Cc2cc3cc(OC)c(OC)cc3[nH]c2=O)C(=O)NC2CCCCC2)cc1,3.44 µM
15,CCC(=O)c1ccc(OCc2ccc(C(=O)c3ccccc3)cc2)cc1,3.02 µM
16,CC(=O)c1cccc(NC(=O)c2csc(-n3nc(C)cc3C(F)(F)F)n2)c1,3.61 µM
17,CCOC(=O)c1sc(=NC(=O)c2ccc(OC(C)C)cc2)n(C)c1C,0.933 µM
18,Clc1nc2c(-c3ccccc3)nnn2c2ccccc12,> 40 µM (inactive)
19,COC(=O)Cn1cc(/C=C/c2cc[n+](C)cc2)c2ccccc21,inactive
20,NS(=O)(=O)c1ccc(CCn2c(=S)[nH]c3ccc(F)cc3c2=O)cc1,> 40 µM (inactive)
21,O=C(CCCOc1ccc(Cl)cc1Cl)NNC(=O)c1ccc(NC(=O)c2ccccc2)cc1,5.81 µM
22,CN1C(=O)/C(=C\c2ccc(N3CCCCC3)o2)C(=O)NC1=S,3.49 µM
23,Cc1ccc(NC(=O)CSc2nc3ccccc3nc2N2CCOCC2)c(C)c1,inactive
24,CC(=O)c1ccc(Nc2ncnc3ccc(Br)cc23)cc1,inactive
25,O=C(COC(=O)c1sc2ccccc2c1Cl)Nc1ncc(Cl)cc1Cl,> 40 µM (inactive)
26,COc1ccc(C(C)(C)C)cc1NC(=O)C1=CC=CN2CCS(=O)(=O)N=C12,5.35 µM
27,CCc1cc2cc3c(cc2nc1SCC(=O)Nc1nnc(C)s1)OCCO3,5.32 µM

row,Structure (SMILES),IC50
1,CC(C)CCSc1nc(N)c(C#N)cc1C#N,2.17 µM
2,CCCCCn1c(=O)c(C(=O)Nc2ccccc2Cl)c(O)c2ccccc21,> 40 µM (inactive)
3,COc1ccc(-c2cc(C3CC3)nc(SCC(=O)c3cccs3)c2C#N)cc1,6.69 µM
4,COc1ccc2[nH]c(C(=O)Nc3ccccc3Cl)cc2c1,> 40 µM (inactive)
5,COc1ccc2[nH]cc(/C=C/c3cc[n+](C)cc3)c2c1,5.25 µM
6,CCN(CC)C(=O)CSc1nc(N)c(C#N)c(-c2cccs2)c1C#N,8.24 µM
7,CCN1C(=O)CSC1=NC12CC3CC(CC(C3)C1)C2,> 40 µM (inactive)
8,C=CCSc1nc(N)c(C#N)c(-c2ccccc2)c1C#N,inactive
9,COc1ccc(Cn2ccc3ccc(-c4ccc5ccn(C(=O)c6ccc(C)cc6)c5c4)cc32)cc1,> 40 µM (inactive)
10,COc1cc(/C=N/NC(=O)c2c(C)nc3ccc(Cl)cn23)cc(OC)c1OC,> 40 µM (inactive)
11,COc1ccc2c(COC(=O)c3n[nH]c4ccccc34)cc(=O)oc2c1,> 40 µM (inactive)
12,CCCN1C(=O)c2cccc3c(N4CCCCC4)ccc(c23)C1=O,8.14 µM
13,COc1cccc(-c2nc(CS(=O)(=O)CC(=O)NCc3ccc(Cl)cc3)c(C)o2)c1,> 40 µM (inactive)
14,CCN(CC)c1ccc(/C=C2\C(=O)NC(=S)N(C)C2=O)o1,4.36 µM
15,CCCCCCNC(=O)C(C#N)c1nc2ccccc2nc1N1CCOCC1 (stereo not given),> 40 µM (inactive)
16,O=C(O)c1ccccc1C(c1ccccc1)c1ccccc1O (stereo not given),inactive
17,CCOc1ccccc1CNC(=O)C1CCN(c2nnc(C)c3c(C)n(-c4ccc(C)cc4)nc23)CC1,> 40 µM (inactive)
18,CC(=O)c1sc(NC(=O)COc2ccc(Br)cc2)nc1C,4.41 µM
19,CC(=O)c1cc2c(cc1N/C(=N/S(=O)(=O)c1ccc(C)cc1)c1ccc(Cl)cc1)OCO2,> 40 µM (inactive)
20,Brc1ccc(-c2nn3c(-c4ccccc4)nnc3s2)cc1,> 40 µM (inactive)
21,COc1ccccc1NC(=O)c1sc2ncn(Cc3cccc4ccccc34)c(=O)c2c1C,2.38 µM
22,COc1ccc(C(=O)c2ccc(OC)c(Br)c2)cc1Br,> 40 µM (inactive)
23,CCn1cc(C2N3CC4(C)CN2CC(C)(C3)C4=O)c2ccccc21 (stereo not given),2.83 µM
24,COc1ccc2c(/C=C/c3cc[n+](C)cc3)c[nH]c2c1,inactive
